The text below walks through data of patent US12565475B2, “Small molecule compound inhibiting signal transmission path of TLR7 and TLR9 and use thereof” (AJOU UNIVERSITY INDUSTRY-ACADEMIC COOPERATION FOUNDATION, priority 2019, dated 2026).

For experiment [1], the target named is T1, TLR3 (Mus musculus, UniProt Q99MB1).
T1 construct: endogenous in cells; host or cells: RAW 264.7
T1 sequence (Q99MB1 26-905): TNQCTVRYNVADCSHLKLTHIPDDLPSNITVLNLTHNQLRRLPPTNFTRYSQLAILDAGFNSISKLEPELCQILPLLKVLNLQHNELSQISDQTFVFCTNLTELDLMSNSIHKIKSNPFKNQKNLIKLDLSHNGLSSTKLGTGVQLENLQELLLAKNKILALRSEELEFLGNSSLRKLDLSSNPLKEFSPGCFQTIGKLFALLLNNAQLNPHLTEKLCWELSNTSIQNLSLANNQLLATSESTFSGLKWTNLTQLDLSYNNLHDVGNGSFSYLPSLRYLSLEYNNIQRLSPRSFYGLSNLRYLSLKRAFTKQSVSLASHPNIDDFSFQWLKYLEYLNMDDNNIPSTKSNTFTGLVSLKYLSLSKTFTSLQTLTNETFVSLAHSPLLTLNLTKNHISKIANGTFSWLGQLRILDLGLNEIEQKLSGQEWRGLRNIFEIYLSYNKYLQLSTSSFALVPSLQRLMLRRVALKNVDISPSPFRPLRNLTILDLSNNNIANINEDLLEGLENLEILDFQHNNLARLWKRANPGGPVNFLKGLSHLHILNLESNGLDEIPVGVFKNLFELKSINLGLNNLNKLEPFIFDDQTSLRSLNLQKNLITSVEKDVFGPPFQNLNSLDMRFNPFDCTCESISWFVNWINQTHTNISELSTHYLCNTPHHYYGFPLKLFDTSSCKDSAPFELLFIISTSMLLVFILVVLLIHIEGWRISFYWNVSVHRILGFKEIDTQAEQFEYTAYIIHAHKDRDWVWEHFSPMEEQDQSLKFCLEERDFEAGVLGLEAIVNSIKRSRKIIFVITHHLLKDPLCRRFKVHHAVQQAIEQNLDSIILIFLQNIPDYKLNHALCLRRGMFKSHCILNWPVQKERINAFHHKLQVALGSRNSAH
The experiment can be described thus: TLR3-mediated TNF-α secretion (poly I:C), ELISA. It is filed as cell-based, murine. To be noted: RAW 264.7, 10 or 20 μM, poly I:C 24 hours. As for the experimental part:
Agonists specific to TLR1/TLR2 (Pam3CSK4), TLR2/TLR6 (FSL-1), TLR3 (Poly I:C), TLR7 (imiquimod), and TLR8 (TL8-506) were purchased from InvivoGen Ltd. (Hong-Kong, China), and a TLR4-specific agonist (LPS from E. coli O111:B4) was purchased from Sigma-Aldrich, Inc. For TLR9-specific stimulation, class C CpG-ODN (ODN2395, 5′-TCGTCGTTTTCGGCGCGCGCCG-3′) having full phosphorothioate backbone modification was synthesized (Bioneer, Inc., Daejeon, Korea). All TLR agonists were dissolved in deionized water and applied to a culture media for TLR activation. The cells were treated with test compounds or a control medium for 1 hour, and then stimulated with a TLR agonist for 4 hours, or 24 hours in the case of poly(I:C), and the cytokine secretion was monitored.
RAW 264.7 or differentiated THP-1 cell lines were seeded onto a 96-well culture plate at a density of 2×10^4 cells/well. The cells were treated with test compounds for 1 hour followed by the stimulation with TLR agonists for 4 hours. The supernatant was transferred to pre-coated assay plates, and the secretion levels of mouse and human TNF-α were measured by respective ELISA kits (Invitrogen, Carlsbad, CA, USA). […] Absorbance was measured by a microplate reader spectrophotometer (Molecular Devices, Inc., San Jose, CA, USA), and data was interpolated from a standard curve using SoftMax Pro 5.3 software (Molecular Devices, Inc.). […]
On the technique in general: An ELISA detects its analyte on a solid surface through an enzyme-linked reagent.

Experiment [2] relates to phosphorylation of MAPK (JNK, p38-MAPK, ERK) and p65 subunit of NF-κB. Briefly: Western blot of NF-κB p65 and MAPK phosphorylation after ODN2395 stimulation. It counts as cell-based, murine. To be noted: RAW 264.7, 20 μM, ODN2395 stimulation 15 min and 30 min. How it is done:
RAW 264.7 cells were seeded into a 60 mm cell culture dish at a density of 2×10^6 cells/dish, and treated with test compounds followed by TLR agonists. The cell lysate was harvested through mammalian protein extraction kit (M-PER; Thermo Fisher Scientific, Inc.) with the protease and phosphatase inhibitor cocktail (Thermo Fisher Scientific, Inc.), and the protein levels were quantified using a bicinchoninic acid assay (Sigma-Aldrich, Co.). Protein samples were separated by SDS-PAGE and transferred to nitrocellulose membranes (GE Healthcare, Inc., Chicago, IL, USA). The membranes were incubated with primary antibodies specific to phospho-JNK (Cell Signaling Technology, Inc., Danvers, MA, USA), phospho-ERK (Santa Cruz Biotechnology, Inc., Dallas, TX, USA), phospho-p38-MAPK (Cell Signaling Technology, Inc.), phospho-p65 (Cell Signaling Technology, Inc.), or β-actin (Santa Cruz Biotechnology, Inc.). […] Protein levels were confirmed using a chemiluminescent substrate (SuperSignal™ West Pico PLUS, Thermo Fisher Scientific, Inc.) and a luminescence detection system (Fusion Solo S, VILBER, France).
In general, MYD88 recruitment by TLRs triggers the activation of the transcription factor NF-κB as well as the cell proliferation factor MAPK. […]

As to `COc1ccc(CNc2ncc(-c3ccc4c(c3)OCO4)n2C)c(OC)c1` [TIC10-7, 5-(2H-1,3-benzodioxol-5-yl)-N-[(2,4-dimethoxyphenyl)methyl]-1-methyl-1H-imidazol-2-amine], in experiment [1], the “TLR3-mediated TNF-α secretion” value is listed as “moderately reduced”. Also, in experiment [2], the “phosphorylation of MAPK (JNK, p38-MAPK, and ERK) and the p65 subunit of NF-κB” value is recorded as “blocked the robust phosphorylation”.
